Laboratory results as given in the supplement of paper PMC10307832.

Legend:
Assay in all cases: relative viability (nuclei count vs DMSO), 5 days (fraction); higher = more cells survive
A-427 = system: A-427
Summary of the method: (§1)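 Lung cancer cell lines were pin-tool dosed in 1536-well plates on the day after seeding, with either a lone drug or a fixed anchor-drug dose plus five library-drug doses (not always all listed) in √10 steps. Nuclei were counted on 4× images after 5 days. Relative viability is the ratio of treated-well to vehicle-well nuclei counts, with each value a median of duplicate plates.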

NCI-H1915 = system: NCI-H1915
Summary of the method: as §1

201T = system: 201T
Summary of the method: as §1

NCI-H596 = system: NCI-H596
Summary of the method: as §1

NCI-H1793 = system: NCI-H1793
Summary of the method: as §1

LXF-289 = system: LXF-289
Summary of the method: as §1

EMC-BAC-2 = system: EMC-BAC-2
Summary of the method: as §1

HCC-827 = system: HCC-827
Summary of the method: as §1

BEN = system: BEN
Summary of the method: as §1

NCI-H2126 = system: NCI-H2126
Summary of the method: as §1

EPLC-272H = system: EPLC-272H
Summary of the method: as §1

NCI-H358 = system: NCI-H358
Summary of the method: as §1

COR-L23 = system: COR-L23
Summary of the method: as §1

EKVX = system: EKVX
Summary of the method: as §1

NCI-H460 = system: NCI-H460
Summary of the method: as §1

LCLC-103H = system: LCLC-103H
Summary of the method: as §1

LK-2 = system: LK-2
Summary of the method: as §1

NCI-H1650 = system: NCI-H1650
Summary of the method: as §1

NCI-H2087 = system: NCI-H2087
Summary of the method: as §1

NCI-H1651 = system: NCI-H1651
Summary of the method: as §1

SW 1573 = system: SW 1573
Summary of the method: as §1

NCI-H2347 = system: NCI-H2347
Summary of the method: as §1

HCC-44 = system: HCC-44
Summary of the method: as §1

O=C(O)CCCCC(CCSCc1ccccc1)SCc1ccccc1 (centres undefined) [CPI-613] + Nc1ncn([C@H]2C[C@H](O)[C@@H](CO)O2)c(=O)n1 [Decitabine] (partner 2 µM) gave a relative viability (A-427; first compound 5 µM) of 0.55, a relative viability (A-427; first compound 15.81 µM) of 0.551 and a relative viability (A-427; first compound 50 µM) of 0.582. For the same compound, the relative viability (A-427; first compound 158.11 µM) was 0.495, the relative viability (A-427; first compound 500 µM) was 0.435 and the relative viability (NCI-H1915; first compound 5 µM) was 0.272. For the same compound, the relative viability (NCI-H1915; first compound 15.81 µM) was 0.266, the relative viability (NCI-H1915; first compound 50 µM) was 0.256 and the relative viability (NCI-H1915; first compound 158.11 µM) was 0.235. For the same compound, the relative viability (NCI-H1915; first compound 500 µM) was 0.114, the relative viability (201T; first compound 5 µM) was 0.848 and the relative viability (201T; first compound 15.81 µM) was 0.778. It also gave a relative viability (201T; first compound 50 µM) of 0.841, a relative viability (201T; first compound 158.11 µM) of 0.194 and a relative viability (201T; first compound 500 µM) of 0.211. The relative viability (NCI-H596; first compound 5 µM) was 1.13, the relative viability (NCI-H596; first compound 15.81 µM) was 0.965 and the relative viability (NCI-H596; first compound 50 µM) was 0.98. For the same compound, the relative viability (NCI-H596; first compound 158.11 µM) was 0.866, the relative viability (NCI-H596; first compound 500 µM) was 0.111 and the relative viability (NCI-H1793; first compound 5 µM) was 0.468. It also gave a relative viability (NCI-H1793; first compound 15.81 µM) of 0.51, a relative viability (NCI-H1793; first compound 50 µM) of 0.539 and a relative viability (NCI-H1793; first compound 158.11 µM) of 0.25. For the same compound, the relative viability (NCI-H1793; first compound 500 µM) was 0.108, the relative viability (LXF-289; first compound 5 µM) was 0.369 and the relative viability (LXF-289; first compound 15.81 µM) was 0.375. For the same compound, the relative viability (LXF-289; first compound 50 µM) was 0.365, the relative viability (LXF-289; first compound 158.11 µM) was 0.272 and the relative viability (LXF-289; first compound 500 µM) was 0.0864. For the same compound, the relative viability (EMC-BAC-2; first compound 5 µM) was 0.982, the relative viability (EMC-BAC-2; first compound 15.81 µM) was 0.9 and the relative viability (EMC-BAC-2; first compound 50 µM) was 0.942. For the same compound, the relative viability (EMC-BAC-2; first compound 158.11 µM) was 0.74, the relative viability (EMC-BAC-2; first compound 500 µM) was 0.632 and the relative viability (HCC-827; first compound 5 µM) was 0.363. For the same compound, the relative viability (HCC-827; first compound 15.81 µM) was 0.31, the relative viability (HCC-827; first compound 50 µM) was 0.359 and the relative viability (HCC-827; first compound 158.11 µM) was 0.301. It also gave a relative viability (HCC-827; first compound 500 µM) of 0.29, a relative viability (BEN; first compound 5 µM) of 0.773 and a relative viability (BEN; first compound 15.81 µM) of 0.649. It also gave a relative viability (BEN; first compound 50 µM) of 0.802, a relative viability (BEN; first compound 158.11 µM) of 0.625 and a relative viability (BEN; first compound 500 µM) of 0.608. The relative viability (NCI-H2126; first compound 5 µM) was 0.536, the relative viability (NCI-H2126; first compound 15.81 µM) was 0.578 and the relative viability (NCI-H2126; first compound 50 µM) was 0.599. For the same compound, the relative viability (NCI-H2126; first compound 158.11 µM) was 0.188, the relative viability (NCI-H2126; first compound 500 µM) was 0.132 and the relative viability (EPLC-272H; first compound 5 µM) was 0.358. It also gave a relative viability (EPLC-272H; first compound 15.81 µM) of 0.386, a relative viability (EPLC-272H; first compound 50 µM) of 0.429 and a relative viability (EPLC-272H; first compound 158.11 µM) of 0.343. It also gave a relative viability (EPLC-272H; first compound 500 µM) of 0.319, a relative viability (NCI-H358; first compound 5 µM) of 0.235 and a relative viability (NCI-H358; first compound 15.81 µM) of 0.2. It also gave a relative viability (NCI-H358; first compound 50 µM) of 0.219, a relative viability (NCI-H358; first compound 158.11 µM) of 0.136 and a relative viability (NCI-H358; first compound 500 µM) of 0.02. The relative viability (COR-L23; first compound 5 µM) was 0.494, the relative viability (COR-L23; first compound 15.81 µM) was 0.367 and the relative viability (COR-L23; first compound 50 µM) was 0.469. For the same compound, the relative viability (COR-L23; first compound 158.11 µM) was 0.229, the relative viability (COR-L23; first compound 500 µM) was 0.0175 and the relative viability (EKVX; first compound 5 µM) was 0.29. The relative viability (EKVX; first compound 15.81 µM) was 0.348, the relative viability (EKVX; first compound 50 µM) was 0.423 and the relative viability (EKVX; first compound 500 µM) was 0.397. The relative viability (NCI-H460; first compound 5 µM) was 0.513, the relative viability (NCI-H460; first compound 15.81 µM) was 0.396 and the relative viability (NCI-H460; first compound 50 µM) was 0.456. It also gave a relative viability (NCI-H460; first compound 158.11 µM) of 0.115, a relative viability (NCI-H460; first compound 500 µM) of 0.0075 and a relative viability (LCLC-103H; first compound 5 µM) of 0.753. The relative viability (LCLC-103H; first compound 15.81 µM) was 0.77, the relative viability (LCLC-103H; first compound 50 µM) was 0.714 and the relative viability (LCLC-103H; first compound 158.11 µM) was 0.29. The relative viability (LCLC-103H; first compound 500 µM) was 0.288, the relative viability (LK-2; first compound 5 µM) was 0.336 and the relative viability (LK-2; first compound 15.81 µM) was 0.274. For the same compound, the relative viability (LK-2; first compound 50 µM) was 0.275, the relative viability (LK-2; first compound 158.11 µM) was 0.313 and the relative viability (LK-2; first compound 500 µM) was 0.283. For the same compound, the relative viability (NCI-H1650; first compound 5 µM) was 0.475, the relative viability (NCI-H1650; first compound 15.81 µM) was 0.443 and the relative viability (NCI-H1650; first compound 50 µM) was 0.332. For the same compound, the relative viability (NCI-H1650; first compound 158.11 µM) was 0.169, the relative viability (NCI-H1650; first compound 500 µM) was 0.0363 and the relative viability (NCI-H2087; first compound 5 µM) was 0.261. It also gave a relative viability (NCI-H2087; first compound 15.81 µM) of 0.218, a relative viability (NCI-H2087; first compound 50 µM) of 0.221 and a relative viability (NCI-H2087; first compound 158.11 µM) of 0.115. For the same compound, the relative viability (NCI-H2087; first compound 500 µM) was 0.0094, the relative viability (NCI-H1651; first compound 5 µM) was 0.625 and the relative viability (NCI-H1651; first compound 15.81 µM) was 0.504. The relative viability (NCI-H1651; first compound 50 µM) was 0.661, the relative viability (NCI-H1651; first compound 158.11 µM) was 0.523 and the relative viability (NCI-H1651; first compound 500 µM) was 0.562. The relative viability (SW 1573; first compound 5 µM) was 0.437, the relative viability (SW 1573; first compound 15.81 µM) was 0.399 and the relative viability (SW 1573; first compound 50 µM) was 0.498. The relative viability (SW 1573; first compound 158.11 µM) was 0.207, the relative viability (SW 1573; first compound 500 µM) was 0.0549 and the relative viability (NCI-H2347; first compound 5 µM) was 0.652. The relative viability (NCI-H2347; first compound 15.81 µM) was 0.553, the relative viability (NCI-H2347; first compound 50 µM) was 0.706 and the relative viability (NCI-H2347; first compound 158.11 µM) was 0.614. The relative viability (NCI-H2347; first compound 500 µM) was 0.347, the relative viability (HCC-44; first compound 5 µM) was 0.877 and the relative viability (HCC-44; first compound 15.81 µM) was 1.01. For the same compound, the relative viability (HCC-44; first compound 50 µM) was 0.922, the relative viability (HCC-44; first compound 158.11 µM) was 0.828 and the relative viability (HCC-44; first compound 500 µM) was 0.779.
